Experimental data as given in patent US9000186B2, “Ring-fused heterocyclic derivative” (Kyowa Hakko Kirin Co., Ltd., priority 2011, dated 2015).
Like-named read-outs stand apart in the source and are kept apart here.

Assays:
[1] = biological target: T1, human Cav3.2 T-type Ca2+ channel (Homo sapiens, UniProt O95180); assay: Inhibitory effect for intracellular calcium response via Cav3.2 T-type Ca2+ channels (FLIPR Calcium 3 Assay Kit); format: cell-based
T1 construct: expressed in transfected cells; host or cells: KJMGER8 cells (Namalwa cell-derived cell line)

[2] = tested on: morphine-induced pruritus mice; assay: Inhibitory effect for pruritus in morphine-induced pruritus mice; format: in vivo, male ddY mice; conditions: oral, dose of 30 mg/kg or less, 30 minutes before intrathecal morphine (1 nmol/5 μL); scratching counted for 30 minutes
Description: Morphine (1 nmol/5 μL, dissolved in physiological saline) or physiological saline was intrathecally administered between the fifth and sixth lumbar vertebrae of male ddY mice using a microsyringe fitted with a 30-gauge injection needle. Mice administered with only morphine were used as a control group, and mice administered with only physiological saline as a physiological saline-administered group.
After the morphine administration, the number of scratching behavior with the hind legs which observed immediately in the mice was measured for 30 minutes. Because mice show a rapid, continuous scratching behavior in each scratching behavior, a series of such behavior was counted as a single scratching behavior.
The test compounds were administered 30 minutes before the morphine administration. Each test compound was suspended in a 0.5% methylcellulose solution, and orally administered in 10 mL/kg volume.

[3] = human Cav3.2-expressing KJMGER8 cells (Namalwa-derived), calcium response induced by 5 mmol/L CaCl2, normalised to 3 μmol/L mibefradil, read-out: IC50 for the human Cav3.2 T-type Ca2+ current

T1 sequence (O95180 whole entry): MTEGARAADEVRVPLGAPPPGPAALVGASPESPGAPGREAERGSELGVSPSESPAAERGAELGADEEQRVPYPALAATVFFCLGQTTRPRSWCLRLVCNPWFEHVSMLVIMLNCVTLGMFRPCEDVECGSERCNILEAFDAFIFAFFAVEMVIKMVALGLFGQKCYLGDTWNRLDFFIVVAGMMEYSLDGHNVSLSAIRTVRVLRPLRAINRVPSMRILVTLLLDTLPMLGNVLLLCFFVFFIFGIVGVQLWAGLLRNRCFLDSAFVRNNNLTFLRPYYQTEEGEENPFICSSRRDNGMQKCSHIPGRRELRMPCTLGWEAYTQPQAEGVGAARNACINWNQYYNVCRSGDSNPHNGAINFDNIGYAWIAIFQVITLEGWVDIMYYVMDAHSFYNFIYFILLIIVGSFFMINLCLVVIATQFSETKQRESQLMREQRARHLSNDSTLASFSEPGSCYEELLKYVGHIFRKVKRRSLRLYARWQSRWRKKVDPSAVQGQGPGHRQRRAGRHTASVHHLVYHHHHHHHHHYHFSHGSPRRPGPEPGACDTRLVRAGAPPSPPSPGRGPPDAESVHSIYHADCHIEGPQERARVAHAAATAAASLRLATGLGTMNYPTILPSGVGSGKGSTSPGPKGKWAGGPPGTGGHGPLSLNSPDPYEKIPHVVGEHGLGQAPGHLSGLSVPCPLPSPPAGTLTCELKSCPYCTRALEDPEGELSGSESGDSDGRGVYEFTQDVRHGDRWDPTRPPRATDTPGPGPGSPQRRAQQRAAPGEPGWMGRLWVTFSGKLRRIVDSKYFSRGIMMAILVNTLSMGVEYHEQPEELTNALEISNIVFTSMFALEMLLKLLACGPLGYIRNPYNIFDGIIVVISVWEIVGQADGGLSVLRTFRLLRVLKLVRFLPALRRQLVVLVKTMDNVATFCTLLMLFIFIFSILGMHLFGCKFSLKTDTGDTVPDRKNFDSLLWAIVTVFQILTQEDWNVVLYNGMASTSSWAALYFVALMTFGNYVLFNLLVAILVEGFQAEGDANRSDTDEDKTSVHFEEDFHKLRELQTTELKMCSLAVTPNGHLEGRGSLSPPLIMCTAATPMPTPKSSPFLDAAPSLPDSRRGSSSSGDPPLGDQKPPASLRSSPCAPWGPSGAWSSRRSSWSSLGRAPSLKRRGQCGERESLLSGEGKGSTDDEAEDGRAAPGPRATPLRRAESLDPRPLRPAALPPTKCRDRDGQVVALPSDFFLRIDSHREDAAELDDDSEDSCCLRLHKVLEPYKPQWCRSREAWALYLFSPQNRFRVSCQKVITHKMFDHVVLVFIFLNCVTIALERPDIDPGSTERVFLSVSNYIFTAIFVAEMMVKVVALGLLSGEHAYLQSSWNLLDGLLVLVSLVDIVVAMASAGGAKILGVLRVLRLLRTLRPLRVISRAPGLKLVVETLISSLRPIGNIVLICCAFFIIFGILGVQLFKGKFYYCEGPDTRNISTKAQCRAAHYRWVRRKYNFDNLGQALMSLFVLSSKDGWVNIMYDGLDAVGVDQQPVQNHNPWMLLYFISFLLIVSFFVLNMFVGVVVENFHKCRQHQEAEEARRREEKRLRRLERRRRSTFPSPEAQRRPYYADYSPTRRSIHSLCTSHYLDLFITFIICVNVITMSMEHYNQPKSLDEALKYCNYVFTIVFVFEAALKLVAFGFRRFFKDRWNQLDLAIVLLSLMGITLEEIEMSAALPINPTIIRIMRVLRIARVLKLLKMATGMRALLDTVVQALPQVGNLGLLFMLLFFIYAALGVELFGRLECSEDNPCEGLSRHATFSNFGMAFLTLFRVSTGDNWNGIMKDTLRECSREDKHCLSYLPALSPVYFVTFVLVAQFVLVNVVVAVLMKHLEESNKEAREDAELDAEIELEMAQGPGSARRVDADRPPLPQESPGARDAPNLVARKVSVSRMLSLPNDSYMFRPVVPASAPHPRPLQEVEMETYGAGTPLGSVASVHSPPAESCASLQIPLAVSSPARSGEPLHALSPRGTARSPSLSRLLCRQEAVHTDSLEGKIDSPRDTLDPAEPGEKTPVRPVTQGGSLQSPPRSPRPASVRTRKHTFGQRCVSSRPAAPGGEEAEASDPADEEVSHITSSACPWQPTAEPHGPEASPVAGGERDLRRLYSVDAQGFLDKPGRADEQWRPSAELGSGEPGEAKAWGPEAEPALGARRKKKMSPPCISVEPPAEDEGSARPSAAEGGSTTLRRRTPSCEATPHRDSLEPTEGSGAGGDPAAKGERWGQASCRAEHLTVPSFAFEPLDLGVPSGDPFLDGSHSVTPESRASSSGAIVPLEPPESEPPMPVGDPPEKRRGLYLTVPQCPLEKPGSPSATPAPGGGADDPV

Compound | IC50 [1] [nM] | increase of the scratching behavior observed in the morphine-induced pruritus mice [2] | IC50 [1, 3] [nM]
Cc1cc(C(=O)NC2CCC(F)(F)CC2)cc2nc(C(F)(F)F)c(CC3CCC(F)(F)CC3)n12 [Compound 72, N-(4,4-Difluorocyclohexyl)-3-(4,4-difluorocyclohexylmethyl)-5-methyl-2-trifluoromethylimidazo[1,2-a]pyridine-7-carboxamide] | < 100 | inhibited | –
Cc1cc(C(=O)NC2CCOC2)cc2nc(C(F)(F)F)c(CC3CCC(F)(F)CC3)n12 (centres unmarked) [Compound 73, 3-(4,4-Difluorocyclohexylmethyl)-5-methyl-N-(tetrahydrofuran-3-yl)-2-trifluoromethylimidazo[1,2-a]pyridine-7-carboxamide] | < 100 | inhibited | –
Cc1cc(C(=O)NC2CCOC(C)(C)C2)cc2nc(C(F)(F)F)c(CC3CCC(F)(F)CC3)n12 (centres unmarked) [Compound 75, 3-(4,4-Difluorocyclohexylmethyl)-N-(2,2-dimethyltetrahydro-2H-pyran-4-yl)-5-methyl-2-trifluoromethylimidazo[1,2-a]pyridine-7-carboxamide] | – | inhibited | < 100
Cc1cc(C(=O)NC2CCCOC2)cc2nc(C(F)(F)F)c(CC3CCC(F)(F)CC3)n12 (centres unmarked) [Compound 76, 3-(4,4-Difluorocyclohexylmethyl)-5-methyl-N-(tetrahydro-2H-pyran-3-yl)-2-trifluoromethylimidazo[1,2-a]pyridine-7-carboxamide] | – | inhibited | < 100
Cc1cc(C(=O)NCC(C)(C)O)cc2nc(C(F)(F)F)c(CC3CCC(F)(F)CC3)n12 [Compound 78, 3-(4,4-Difluorocyclohexylmethyl)-N-(2-hydroxy-2-methylpropyl)-5-methyl-2-trifluoromethylimidazo[1,2-a]pyridine-7-carboxamide] | < 100 | inhibited | –
COC(C)(C)CNC(=O)c1cc(C)n2c(CC3CCC(F)(F)CC3)c(C(F)(F)F)nc2c1 [Compound 79, 3-(4,4-Difluorocyclohexylmethyl)-N-(2-methoxy-2-methylpropyl)-5-methyl-2-trifluoromethylimidazo[1,2-a]pyridine-7-carboxamide] | < 100 | inhibited | –
Cc1cc(C(=O)NCC2CCOC2)cc2nc(C(F)(F)F)c(CC3CCC(F)(F)CC3)n12 (centres unmarked) [Compound 80, 3-(4,4-Difluorocyclohexylmethyl)-N-{(tetrahydrofuran-3-yl)methyl}-5-methyl-2-trifluoromethylimidazo[1,2-a]pyridine-7-carboxamide] | < 100 | inhibited | –
Cc1cc(C(=O)NCC2CCOCC2)cc2nc(C(F)(F)F)c(CC3CCC(F)(F)CC3)n12 [Compound 81, 3-(4,4-Difluorocyclohexylmethyl)-5-methyl-N-{(tetrahydro-2H-pyran-4-yl)methyl}-2-trifluoromethylimidazo[1,2-a]pyridine-7-carboxamide] | < 100 | inhibited | –
Cc1cc(C(=O)NCC2(C#N)CCOCC2)cc2nc(C(F)(F)F)c(CC3CCC(F)(F)CC3)n12 [Compound 84, N-{(4-Cyanotetrahydro-2H-pyran-4-yl)methyl}-3-(4,4-difluorocyclohexylmethyl)-5-methyl-2-trifluoromethylimidazo[1,2-a]pyridine-7-carboxamide] | < 100 | inhibited | –
Cc1cc(C(=O)NC2CCOCC2)cc2nc(C(C)(F)F)c(CC3CCC(F)(F)CC3)n12 [Compound 96, 3-(4,4-Difluorocyclohexylmethyl)-2-(1,1-difluoroethyl)-5-methyl-N-(tetrahydro-2H-pyran-4-yl)imidazo[1,2-a]pyridine-7-carboxamide] | < 100 | inhibited | –
